Data reported in patent publication US4476122A, “Alkyloximes of 7-amino-thiazolyl-acetamido-cephalosporanic acids” (Roussel Uclaf, priority 1976, dated 1984).
In brackets after ≈: the same amount, converted by molar mass. Where two headings read alike, the source gives them in different places.

Key:
[1] = tested on: Klebsiella pneumonia 52,145; assay: Experimental infection with Klebsiella pneumonia in mice (C); assay type: in vivo; details: subcutaneous
Protocol: The activity of the products of Examples 4 and 6 was studied on an experimental infection of Klebsiella pneumonia in mice. Groups of 10 male mice weighing 21 g were infected by an intraperitoneal injection of 0.5 ml of a culture in nutrive media of Klebsiella pneumonia 52,145 diluted by 1/1000 with distilled water. The products were administered subcutaneously 30 minutes, 4, 8, 24 and 32 hours after the injection and the number of dead mice was determined during 10th days.

Enterobacter cloacae 681 = assay: MIC, liquid medium dilution; assay type: cell-based
Protocol: (§1) The method used was a dilution of a liquid medium where a series of tubes received the same quantity of a sterile nutritive media and increasing doses of the test compounds were placed therein. Then each tube was seeded with a bacterial strain and was incubated for 24 or 48 hours at 37° C. in an oven. The increasing inhibition was determined by transillumination to determine the minimum inhibiting concentration (MIC in μg/ml) and the results are reported in the following Tables.

[2] = tested on: Salmonella typhimurium 420; assay: MIC, liquid medium dilution; assay type: cell-based; details: Salmonella enterica
Protocol: as §1

[3] = tested on: Streptococcus faecalis 5 432; assay: MIC, liquid medium dilution; assay type: cell-based
Protocol: as §1

Providencia Du 48 = assay: MIC, liquid medium dilution; assay type: cell-based
Protocol: as §1

[4] = tested on: Klebsiella pneumoniae Exp. 52 145; assay: MIC, liquid medium dilution; assay type: cell-based; details: read-out: MIC
Protocol: as §1

[5] = tested on: Staphylococcus aureus ATCC 6 538 Pen-Sensitive; assay: MIC, liquid medium dilution; assay type: cell-based; details: read-out: MIC
Protocol: as §1

[6] = tested on: Escherichia Coli Resistant Tetracycline ATCC 11 303; assay: MIC, liquid medium dilution; assay type: cell-based; details: read-out: MIC
Protocol: as §1

[7] = tested on: Staphylococcus aureus UC 1 128 Pen-Resistant; assay: MIC, liquid medium dilution; assay type: cell-based
Protocol: as §1

[8] = tested on: Escherichia Coli Exp. TO26 B6; assay: MIC, liquid medium dilution; assay type: cell-based
Protocol: as §1

[9] = tested on: Proteus vulgaris (indol+) A 232; assay: MIC, liquid medium dilution; assay type: cell-based
Protocol: as §1

[10] = tested on: Bacillus subtilis ATCC 6 633; assay: MIC, liquid medium dilution; assay type: cell-based
Protocol: as §1

[11] = tested on: Escherichia Coli Resistant Gentamicine, Tobramycine R 55 123 D; assay: MIC, liquid medium dilution; assay type: cell-based
Protocol: as §1

[12] = tested on: Escherichia Coli Sensitive Tetracycline ATCC 9 637; assay: MIC, liquid medium dilution; assay type: cell-based
Protocol: as §1

[13] = tested on: Serratia Resistant Gentamicine 2 532; assay: MIC, liquid medium dilution; assay type: cell-based; details: read-out: MIC
Protocol: as §1

[14] = tested on: Klebsiella pneumoniae 2 536 Resistant Gentamicine; assay: MIC, liquid medium dilution; assay type: cell-based
Protocol: as §1

[15] = tested on: Pseudomonas 3 935 Exp. SG; assay: MIC, liquid medium dilution; assay type: cell-based; details: 3935EXP.SG
Protocol: as §1

[16] = tested on: Proteus mirabilis (indol-) A 235; assay: MIC, liquid medium dilution; assay type: cell-based; details: read-out: MIC
Protocol: as §1

[17] = tested on: Streptococcus faecalis 99 F 74; assay: MIC, liquid medium dilution; assay type: cell-based; details: Enterococcus faecalis
Protocol: as §1

[18] = tested on: Staphylococcus aureus exp. n° 54 146; assay: MIC, liquid medium dilution; assay type: cell-based
Protocol: as §1

[19] = tested on: Streptococcus pyogenes A 561; assay: MIC, liquid medium dilution; assay type: cell-based; details: read-out: MIC
Protocol: as §1

[20] = tested on: Klebsiella pneumonia 52,145; assay: Experimental infection with Klebsiella pneumonia in mice (D); assay type: in vivo
Protocol: The activity of the products of Examples 19 and 21 was studied on an experimental infection of Klebsiella pneumonia in mice. Groups of 10 male mice weighing 21.5 g received intraperitoneally 0.5 ml of a 24 hour culture in nutritive media of Klebsiella pneumonia 52,145 diluted by 1/1000 with distilled water. The products were administered subcutaneously 1,5 and 24 hours after the injection and the number of dead mice were determined using 10th days.

Escherichia Coli 21 976 = assay: MIC, liquid medium dilution; assay type: cell-based
Protocol: as §1

Escherichia Coli 73 316 = assay: MIC, liquid medium dilution; assay type: cell-based
Protocol: as §1

[21] = tested on: Pathogenic white Staphylococcus 69 396; assay: MIC, liquid medium dilution; assay type: cell-based
Protocol: as §1

Escherichia Coli 72 806 = assay: MIC, liquid medium dilution; assay type: cell-based
Protocol: as §1

Escherichia Coli 69 916 = assay: MIC, liquid medium dilution; assay type: cell-based
Protocol: as §1

[22] = tested on: White Staphylococcus 21 976; assay: MIC, liquid medium dilution; assay type: cell-based
Protocol: as §1

Escherichia Coli 68 956 = assay: MIC, liquid medium dilution; assay type: cell-based
Protocol: as §1

Escherichia Coli 19 976 = assay: MIC, liquid medium dilution; assay type: cell-based
Protocol: as §1

Escherichia Coli 68 696 = assay: MIC, liquid medium dilution; assay type: cell-based
Protocol: as §1

[23] = tested on: Golden Staphylococcus 68 666; assay: MIC, liquid medium dilution; assay type: cell-based
Protocol: as §1

Escherichia Coli 69 886 = assay: MIC, liquid medium dilution; assay type: cell-based
Protocol: as §1

[24] = Hygroscopicity of the crystalline salt; assay type: physicochemical; details: microcrystalline sodium salt

With `CO/N=C(\C(=O)NC1C(=O)N2C(C(=O)O)=C(CSc3nnnn3C)CS[C@H]12)c1csc(N)n1` (stereo partly shown) [Example 4, 7-[{2-(2-amino-4-thiazolyl)-2-methoxyiminoacetyl}amino]-3-[(1-methyl-tetrazol-5-yl)-thiomethyl]-ceph-3-eme-4-carboxylic acid] the “Mice alive on the 10th day” value ([1]; 5 × 0,1 mg) was 9/10, the “Mortality after 5 J (number of dead of 10)” value ([1]; 5 × 0,1 mg) was 1 and the “Mice alive on the 10th day” value ([1]; 5 × 0,25 mg) was 10/10. For the same compound, the MIC (Enterobacter cloacae 681; Enterobacter cloacae, 681, 24 h) was 20 µg/mL (≈ 39.1 µM), the MIC (Enterobacter cloacae 681; Enterobacter cloacae, 681, 48 h) was 20 µg/mL (≈ 39.1 µM) and the MIC ([2]; 24 h) was 0.2 µg/mL (≈ 0.391 µM). It also gave an MIC ([2]; 48 h) of 0.2 µg/mL (≈ 0.391 µM), an MIC ([3]; Enterococcus faecalis, 5432, 24 h) of 2 µg/mL (≈ 3.91 µM) and an MIC ([3]; Enterococcus faecalis, 5432, 48 h) of 2 µg/mL (≈ 3.91 µM). For the same compound, the MIC (Providencia Du 48; DU48, 24 h) was 2 µg/mL (≈ 3.91 µM), the MIC (Providencia Du 48; DU48, 48 h) was 2 µg/mL (≈ 3.91 µM) and the MIC ([4]; EXP.52145, 24 h) was 0.02 µg/mL (≈ 0.0391 µM). For the same compound, the MIC ([4]; EXP.52145, 48 h) was 0.02 µg/mL (≈ 0.0391 µM), the MIC ([5]; ATCC6, 24 h) was 1 µg/mL (≈ 1.95 µM) and the MIC ([5]; ATCC6, 48 h) was 1 µg/mL (≈ 1.95 µM). The MIC ([6]; ATCC11, 24 h) was 0.05 µg/mL (≈ 0.0977 µM), the MIC ([6]; ATCC11, 48 h) was 0.05 µg/mL (≈ 0.0977 µM) and the MIC ([7]; UC1, 24 h) was 2 µg/mL (≈ 3.91 µM). The MIC ([7]; UC1, 48 h) was 2 µg/mL (≈ 3.91 µM), the MIC ([8]; 24 h) was 0.2 µg/mL (≈ 0.391 µM) and the MIC ([8]; 48 h) was 0.2 µg/mL (≈ 0.391 µM). For the same compound, the MIC ([9]; 24 h, read-out: MIC) was 3 µg/mL (≈ 5.86 µM), the MIC ([9]; 48 h) was 20 µg/mL (≈ 39.1 µM) and the MIC ([10]; ATCC6, 24 h) was 2 µg/mL (≈ 3.91 µM). The MIC ([10]; ATCC6, 48 h, read-out: MIC) was 5 µg/mL (≈ 9.77 µM), the MIC ([11]; 24 h) was 0.2 µg/mL (≈ 0.391 µM) and the MIC ([11]; 48 h) was 0.2 µg/mL (≈ 0.391 µM). The MIC ([12]; ATCC9, 24 h) was 0.4 µg/mL (≈ 0.782 µM), the MIC ([12]; ATCC9, 48 h) was 0.4 µg/mL (≈ 0.782 µM) and the MIC ([13]; 24 h) was 1 µg/mL (≈ 1.95 µM). It also gave an MIC ([13]; 48 h) of 1 µg/mL (≈ 1.95 µM), an MIC ([14]; 24 h) of 0.4 µg/mL (≈ 0.782 µM) and an MIC ([14]; 48 h, read-out: MIC) of 0.6 µg/mL (≈ 1.17 µM). For the same compound, the MIC ([15]; 24 h) was 20 µg/mL (≈ 39.1 µM), the MIC ([15]; 48 h, read-out: MIC) was 40 µg/mL (≈ 78.2 µM) and the MIC ([16]; 24 h) was 0.05 µg/mL (≈ 0.0977 µM). It also gave an MIC ([16]; 48 h) of 0.05 µg/mL (≈ 0.0977 µM), an MIC ([17]; 99F74, 24 h) of 2 µg/mL (≈ 3.91 µM) and an MIC ([17]; 99F74, 48 h, read-out: MIC) of 10 µg/mL (≈ 19.5 µM). For the same compound, the MIC ([18]; 24 h) was 2 µg/mL (≈ 3.91 µM), the MIC ([18]; 48 h) was 2 µg/mL (≈ 3.91 µM) and the MIC ([19]; A561, 24 h) was no more than 0.02 µg/mL. It also gave an MIC ([19]; A561, 48 h) of no more than 0.02 µg/mL.

In the case of `CO/N=C(\C(=O)NC1C(=O)N2C(C(=O)O)=C(CSC(C)=O)CSC12)c1csc(N)n1` (stereo not shown) [Example 21, sodium 3-acetylthiomethyl-7-[{2-(2-amino-4-thiazolyl)-2-methoxyiminoacetyl}amino]-ceph-3-eme-4-carboxylate], the “Mice alive on the 10th day” value ([20]; subcutaneous, 0,1 mg) is reported as 9/10, the “Mortality after 4eJ (number of dead of 10)” value ([20]; subcutaneous, 0,1 mg) is reported as 1 and the “Mice alive on the 10th day” value ([20]; subcutaneous, 0,05 mg) is reported as 9/10. For the same compound, the “Mortality after 73H 15 (number of dead of 10)” value ([20]; subcutaneous, 0,05 mg) was 1, the “Mice alive on the 10th day” value ([20]; subcutaneous, 0,5 mg) was 10/10 and the “Mice alive on the 10th day” value ([20]; subcutaneous, 0,25 mg) was 10/10. For the same compound, the “Mice alive on the 10th day” value ([20]; subcutaneous, 1 mg) was 10/10, the MIC (Escherichia Coli 21 976; COLI21976, 24 h, read-out: MIC) was 0.6 µg/mL and the MIC (Escherichia Coli 21 976; COLI21976, 48 h) was 0.6 µg/mL. It also gave an MIC (Escherichia Coli 73 316; COLI73316, 24 h) of 0.2 µg/mL, an MIC (Escherichia Coli 73 316; COLI73316, 48 h) of 0.2 µg/mL and an MIC ([21]; 24 h) of 2 µg/mL. It also gave an MIC ([21]; 48 h) of 2 µg/mL, an MIC (Escherichia Coli 72 806; COLI72806, 24 h) of 1 µg/mL and an MIC (Escherichia Coli 72 806; COLI72806, 48 h) of 1 µg/mL. For the same compound, the MIC (Escherichia Coli 69 916; COLI69916, 24 h) was 0.4 µg/mL, the MIC (Escherichia Coli 69 916; COLI69916, 48 h) was 0.4 µg/mL and the MIC ([22]; 24 h) was 3 µg/mL. For the same compound, the MIC ([22]; 48 h) was 5 µg/mL, the MIC (Escherichia Coli 68 956; COLI68956, 24 h) was 0.4 µg/mL and the MIC (Escherichia Coli 68 956; COLI68956, 48 h) was 0.4 µg/mL. It also gave an MIC (Escherichia Coli 19 976; COLI19976, 24 h, read-out: MIC) of 0.6 µg/mL, an MIC (Escherichia Coli 19 976; COLI19976, 48 h) of 0.6 µg/mL and an MIC (Escherichia Coli 68 696; COLI68696, 24 h) of 0.4 µg/mL. For the same compound, the MIC (Escherichia Coli 68 696; COLI68696, 48 h) was 0.4 µg/mL, the MIC ([23]; 24 h) was 3 µg/mL and the MIC ([23]; 48 h) was 5 µg/mL. For the same compound, the MIC (Escherichia Coli 69 886; COLI69886, 24 h, read-out: MIC) was 0.6 µg/mL and the MIC (Escherichia Coli 69 886; COLI69886, 48 h) was 1 µg/mL.

With `CO/N=C(\C(=O)NC1C(=O)N2C(C(=O)O)=C(CSC(C)=O)CSC12)c1csc(N)n1` (stereo not shown) [Example 22, sodium 3-acetylthiomethyl-7-[{2-(2-amino-4-thiazolyl)-2-methoxyiminoacetyl}amino]-ceph-3-eme-4-carboxylate] the hygroscopicity [24] was “non-hydroscopic”.
